Measured values as given in article PMC6370995, “Phase I study of PF‐04895162, a Kv7 channel opener, reveals unexpected hepatotoxicity in healthy subjects, but not rats or monkeys: clinical evidence of disrupted bile acid homeostasis” (Pharmacology Research & Perspectives, 2019).
Like-named read-outs stand apart in the source and are kept apart here.

Legend:
healthy subjects = experiment: Phase 1 clinical study in healthy subjects: safety (adverse events, laboratory tests); type: in vivo, human
Experimental: A randomized, double‐blind, third‐party open (i.e., subject and Investigator blind, and Sponsor open), placebo‐controlled study was conducted in healthy subjects to investigate the safety, tolerability, and pharmacokinetics of single and multiple oral doses of PF‐04895162 and to characterize the effect of food on the pharmacokinetics of a single oral dose of PF‐04895162. The study was conducted in accordance with the International Conference on Harmonization guideline for Good Clinical Practice and the principles of the Declaration of Helsinki and was approved by the local independent ethics committee. All subjects gave written informed consent prior to participation in the study. The study was planned as a parallel group, dose escalation study in four cohorts of 10 subjects each, however, the study was terminated prematurely and only Cohort 1 was conducted. After an initial screening visit to confirm eligibility, subjects in Cohort 1 (Figure 1) received single oral doses of 300 mg PF‐04895162 in Period 1 (under fasting conditions) and Period 2 (under fed conditions), and then 300 mg BID PF‐04895162 or placebo for 14 days (under fasting conditions) in Period 3 (the final dose was administered on the morning of Day 14). In Period 2, subjects were given a high‐fat breakfast 25 minutes prior to dosing which had to be consumed within 20 minutes. In all periods, subjects were fasted for at least 8 hours prior to morning dosing (except for breakfast in Period 2), and received lunch and dinner approximately 4 and 9‐10 hours after the morning dose, respectively. In Period 3, subjects were randomized so that eight subjects received PF‐04895162 and two subjects received placebo. The single doses in Periods 1 and 2, and the first dose in Period 3 were each separated by 3 days. A follow‐up visit was conducted 7‐14 days after the final dose. The ClinicalTrials.gov identifier was NCT01691274.
Subjects were healthy males and/or females of nonchildbearing potential, aged 18 to 55 years inclusive with body mass index of 17.5 to 30.5 kg/m^2 and total body weight of >50 kg. Healthy was defined as no clinically relevant abnormalities identified by a detailed medical history, full physical examination, including blood pressure and pulse rate measurement, 12 lead electrocardiograms (ECGs) or clinical laboratory tests. Subjects with evidence or history of clinically significant disease (including drug allergies, but excluding untreated, asymptomatic, seasonal allergies at the time of dosing) and pregnant or nursing females were excluded from this study. Subjects with a history of seizures or conditions with a risk of seizures were also excluded. Other exclusion criteria were generally standard for healthy subject studies and included conditions affecting drug absorption, evidence of drug and/or alcohol abuse, and restrictions on the use of prescription, nonprescription, and over‐the‐counter medications and herbal remedies.
Safety was assessed throughout the study by monitoring adverse events, vital signs (blood pressure, pulse rate, and body temperature), 12‐lead ECGs, and physical examinations. Blood samples for safety laboratory assessments were collected prior to and 24 hours after the first single dose of PF‐04895162 (Day 1 and 2 of Period 1), and in Period 3 on Days 7, 14, and 21 (additional samples were also collected in response to emerging safety data). The Columbia suicide severity rating scale (C‐SSRS) was also conducted at screening or baseline and at the follow‐up visit. Blood samples for pharmacokinetic profiles of PF‐04895162 were collected from predose to 72 hours after each single dose (Periods 1 and 2), and up to 12 and 48 hours after morning dosing on Days 7 and 14, respectively, in Period 3. Additional trough samples were also collected on Days 5, 6, 12, and 13 of Period 3.

[1] = test system: liver mitochondrial function; experiment: mitochondrial state 3/4 respiration in the presence of glutamate/malate; type: biochemical; details: N = 2
Excerpt: […]

human hepatocytes = experiment: mitochondrial respiratory reserve in human hepatocytes; type: cell-based; details: human hepatocytes treated for 25 minutes (data not shown)
MRP3 = target: T1, MRP3 (Homo sapiens, UniProt O15438); experiment: MRP3 transporter inhibition in vesicles from HEK293 cells; type: biochemical
T1 construct: host or cells: membrane vesicles from HEK293 cells
Excerpt: […]

[2] = 300 mg single dose, fasted, N = 10
[3] = 300 mg single dose, fed, N = 10
[4] = Grade 1, >1.25 - 2.5 × ULN, 300 mg BID
[5] = Grade 2, >2.5 - 5 × ULN, 300 mg BID
[6] = Grade 3, >5 - 10 × ULN, 300 mg BID

T1 sequence (O15438 whole entry): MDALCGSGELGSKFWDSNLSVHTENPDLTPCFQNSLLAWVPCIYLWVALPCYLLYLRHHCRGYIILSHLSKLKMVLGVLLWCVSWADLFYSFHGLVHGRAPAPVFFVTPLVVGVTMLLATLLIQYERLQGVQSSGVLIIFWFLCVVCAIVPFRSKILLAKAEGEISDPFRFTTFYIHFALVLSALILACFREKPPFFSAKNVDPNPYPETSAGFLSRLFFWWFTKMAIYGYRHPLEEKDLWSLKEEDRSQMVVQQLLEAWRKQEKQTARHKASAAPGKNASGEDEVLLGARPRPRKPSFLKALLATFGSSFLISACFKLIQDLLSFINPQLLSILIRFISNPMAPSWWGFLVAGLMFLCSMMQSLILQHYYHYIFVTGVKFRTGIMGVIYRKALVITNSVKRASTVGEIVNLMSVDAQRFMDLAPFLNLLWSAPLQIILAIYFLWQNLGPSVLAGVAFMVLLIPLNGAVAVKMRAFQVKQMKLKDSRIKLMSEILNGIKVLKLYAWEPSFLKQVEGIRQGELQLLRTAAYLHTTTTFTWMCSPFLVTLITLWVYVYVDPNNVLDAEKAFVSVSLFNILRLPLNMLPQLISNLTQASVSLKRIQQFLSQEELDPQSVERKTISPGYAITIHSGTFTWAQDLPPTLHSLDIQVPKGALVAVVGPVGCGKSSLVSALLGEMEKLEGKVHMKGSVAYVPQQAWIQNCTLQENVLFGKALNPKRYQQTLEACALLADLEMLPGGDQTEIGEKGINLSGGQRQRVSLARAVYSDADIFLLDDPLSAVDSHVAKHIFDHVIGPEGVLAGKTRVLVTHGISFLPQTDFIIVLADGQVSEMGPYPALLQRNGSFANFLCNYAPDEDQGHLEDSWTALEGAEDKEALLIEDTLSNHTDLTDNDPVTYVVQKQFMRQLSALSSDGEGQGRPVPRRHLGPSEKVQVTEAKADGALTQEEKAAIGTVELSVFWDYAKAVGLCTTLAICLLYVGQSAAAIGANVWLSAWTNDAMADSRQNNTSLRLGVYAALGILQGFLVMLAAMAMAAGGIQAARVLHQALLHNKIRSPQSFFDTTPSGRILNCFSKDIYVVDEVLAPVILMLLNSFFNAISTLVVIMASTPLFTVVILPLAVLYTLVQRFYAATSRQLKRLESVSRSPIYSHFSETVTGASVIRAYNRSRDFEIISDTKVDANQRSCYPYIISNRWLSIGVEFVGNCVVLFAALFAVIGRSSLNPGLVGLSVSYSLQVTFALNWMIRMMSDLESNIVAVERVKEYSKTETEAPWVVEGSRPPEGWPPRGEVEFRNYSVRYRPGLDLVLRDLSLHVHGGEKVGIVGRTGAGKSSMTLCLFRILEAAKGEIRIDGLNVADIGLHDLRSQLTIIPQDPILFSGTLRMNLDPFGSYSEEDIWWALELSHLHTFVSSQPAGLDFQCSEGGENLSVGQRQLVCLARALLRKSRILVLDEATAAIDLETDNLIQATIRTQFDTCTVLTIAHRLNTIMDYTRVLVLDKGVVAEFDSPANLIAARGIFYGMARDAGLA

For `O=C(Cc1ccc(F)cc1)Nn1c(C2CC2)nc2cc(F)ccc2c1=O` [PF‐04895162, N‐(2‐cyclopropyl‐7‐fluoro‐4‐oxoquinazolin‐3(4H)‐yl)‐2‐(4‐fluorophenyl)ethanamide], the “ALT, Subject 8, Day 7” value (healthy subjects; 300 mg BID) was 1.5 x the ULN, the “Height of transaminase elevations” value (healthy subjects; 300 mg BID, 14-day multiple dose) was ≤ 5 x the ULN and the “ALT elevation, Subject 8” value (healthy subjects; 300 mg BID, Day 14, Grade 3) was 5.6 x ULN. The “AST increase, Subject 8” value (healthy subjects; 300 mg BID, Grade 2) was 2.7 x ULN, the “Number of Subjects discontinued due to AEs, all causalities” value (from here on “Number … to AEs, all causalities”) (healthy subjects; 300 mg BID, N = 8) was 1 (1) and the “Number of Subjects discontinued due to AEs, treatment-related” value (healthy subjects; 300 mg BID, N = 8) was 1 (1). For the same molecule, the “Number of Subjects with AEs, all causalities” value (healthy subjects; 300 mg BID, N = 8) was 8, the “Number of Subjects with AEs, treatment-related” value (healthy subjects; 300 mg BID, N = 8) was 6 and the “Number of Subjects with Amylase increased, all causalities” value (healthy subjects; 300 mg BID, N = 8) was 2 (2). The “Number of Subjects with Amylase increased, treatment-related” value (healthy subjects; 300 mg BID, N = 8) was 2 (2), the “Number of Subjects with Decreased appetite, all causalities” value (healthy subjects; 300 mg BID, N = 8) was 2 and the “Number of Subjects with Decreased appetite, treatment-related” value (healthy subjects; 300 mg BID, N = 8) was 0. For the same molecule, the “Number of Subjects with Flatulence, all causalities” value (healthy subjects; 300 mg BID, N = 8) was 2, the “Number of Subjects with Flatulence, treatment-related” value (healthy subjects; 300 mg BID, N = 8) was 1 and the “Number of Subjects with Transaminases increased, all causalities” value (healthy subjects; 300 mg BID, N = 8) was 6 (6). For the same molecule, the “Number of Subjects with Transaminases increased, treatment-related” value (healthy subjects; 300 mg BID, N = 8) was 6 (6), the “Number of Subjects with serious AEs” value (healthy subjects; 300 mg BID, N = 8) was 0 and the “Number of Subjects with severe AEs” value (healthy subjects; 300 mg BID, N = 8) was 0. For the same molecule, the “ALT response, Subject 6” value (healthy subjects; 300 mg BID, by Day 14) was “did not demonstrate any ALT elevations”, the “GGT elevation, Subject 8” value (healthy subjects; 300 mg BID, starting on Day 14) was 1.4 x ULN and the “Subjects with elevations in ALT on Day 14” value (healthy subjects; 300 mg BID, subjects who finished Period 3) was “six of the remaining seven subjects”. The “Number … to AEs, all causalities” value (healthy subjects; [2]) was 0, the “Number of Subjects with AEs, all causalities” value (healthy subjects; [2]) was 1 (1) and the “Number of Subjects with AEs, treatment-related” value (healthy subjects; [2]) was 1 (1). For the same molecule, the “Number of Subjects with Amylase increased, all causalities” value (healthy subjects; [2]) was 0, the “Number of Subjects with Decreased appetite, all causalities” value (healthy subjects; [2]) was 0 and the “Number of Subjects with Flatulence, all causalities” value (healthy subjects; [2]) was 0. For the same molecule, the “Number of Subjects with Transaminases increased, all causalities” value (healthy subjects; [2]) was 0, the “Number of Subjects with serious AEs” value (healthy subjects; [2]) was 0 and the “Number of Subjects with severe AEs” value (healthy subjects; [2]) was 0. The “Number … to AEs, all causalities” value (healthy subjects; [3]) was 0, the “Number of Subjects with AEs, all causalities” value (healthy subjects; [3]) was 2 and the “Number of Subjects with AEs, treatment-related” value (healthy subjects; [3]) was 0. The “Number of Subjects with Amylase increased, all causalities” value (healthy subjects; [3]) was 0, the “Number of Subjects with Decreased appetite, all causalities” value (healthy subjects; [3]) was 0 and the “Number of Subjects with Flatulence, all causalities” value (healthy subjects; [3]) was 0. For the same molecule, the “Number of Subjects with Transaminases increased, all causalities” value (healthy subjects; [3]) was 0, the “Number of Subjects with serious AEs” value (healthy subjects; [3]) was 0 and the “Number of Subjects with severe AEs” value (healthy subjects; [3]) was 0. The “Subjects with transaminase elevations (≥grade 1)” value (healthy subjects; 300 mg twice daily for 2 weeks, healthy subjects) was “six of eight”, the “Lipase, Subject 7” value (healthy subjects; Day 3 of Period 3, 300 mg BID, ULN = 60 IU/L) was 434 IU/L and the “Amylase, Subject 7” value (healthy subjects; Day 3 of Period 3, 300 mg BID, ULN = 136 IU/L) was 179 IU/L. For the same molecule, the “TBIL abnormalities, number of subjects, Grade 1” value (healthy subjects; Grade 1, >1 - 1.5 × ULN, 300 mg BID) was 2, the “ALT abnormalities, number of subjects, Grade 1” value (healthy subjects; [4]) was 3 and the “AST abnormalities, number of subjects, Grade 1” value (healthy subjects; [4]) was 0. The “TBIL abnormalities, number of subjects, Grade 2” value (healthy subjects; Grade 2, >1.5 - 2.5 × ULN, 300 mg BID) was 0, the “ALT abnormalities, number of subjects, Grade 2” value (healthy subjects; [5]) was 2 and the “AST abnormalities, number of subjects, Grade 2” value (healthy subjects; [5]) was 1. The “TBIL abnormalities, number of subjects, Grade 3” value (healthy subjects; Grade 3, >2.5 - 5 × ULN, 300 mg BID) was 0, the “ALT abnormalities, number of subjects, Grade 3” value (healthy subjects; [6]) was 1 and the “AST abnormalities, number of subjects, Grade 3” value (healthy subjects; [6]) was 0. For the same molecule, the “TBIL abnormalities, number of subjects, Grade 4” value (healthy subjects; Grade 4, >5 × ULN, 300 mg BID) was 0, the “ALT abnormalities, number of subjects, Grade 4” value (healthy subjects; Grade 4, >10 × ULN, 300 mg BID) was 0 and the “AST abnormalities, number of subjects, Grade 4” value (healthy subjects; Grade 4, >10 × ULN, 300 mg BID) was 0. For the same molecule, the IC50 ([1]; read-out: IC50 for inhibition of glutamate/malate respiration) was ~10 µM, the IC50 ([1]; read-out: IC50 for uncoupling activity) was > 100 µM and the “Concentrations at which mitochondrial respiratory reserve was compromised” value (human hepatocytes) was > 11 µmol/L. The “effect on MRP3” value (MRP3) was “no inhibitory effect”.
